Test: Strength, stamina and endurance of a training test subject
Format: in vivo, human
Procedure: Test subject was administered L-Glutamine HCl (pH 6.0) for 30 days.
Training was three days per week, with 3 days of cardio. Dosage was 500 mg per day the first week and 1000 mg per day for week 2-4.
Test subject was taken off the glutamine HCl (pH 6.0) and administered buffered-Glutamine (pH 12.0) for 30 days. Training was three days per week, with 3 days of cardio. Dosage was 500 mg per day for the 5th week and 1000 mg per day for weeks 6-8.

## Cl.NC(=O)CC[C@H](N)C(=O)O [L-Glutamine HCl]
Week 1, 500 mg per day
  changes to strength, stamina or endurance (in words): No noticeable changes
Week 2-4, 1000 mg per day
  changes to strength, stamina or endurance (in words): No noticeable changes
